Laboratory results: PubChem BioAssay (NCI)
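Five concentrations, 48 hours, 96-well plates. GI50 = concentration required for 50% inhibition of growth. The concentration for full growth arrest is given as TGI.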

Assays:
Experiment in all cases: NCI-60 cell line screen, 48 h
[1] = test system: TK-10 renal
[2] = test system: T-47D breast
[3] = test system: K-562 leukemia
[4] = test system: HS 578T breast
[5] = test system: NCI-H226 lung
[6] = test system: ACHN renal
[7] = test system: RXF 393 renal
[8] = test system: HCT-15 colon
[9] = test system: UO-31 renal
[10] = test system: OVCAR-4 ovarian
[11] = test system: HT29 colon
[12] = test system: DU-145 prostate
[13] = test system: U251 CNS
[14] = test system: A549 NSCLC
[15] = test system: 786-0 renal
[16] = test system: BT-549 breast
[17] = test system: OVCAR-8 ovarian
[18] = test system: SF-295 CNS
[19] = test system: A498 renal
[20] = test system: MALME-3M melanoma
[21] = test system: CCRF-CEM leukemia
[22] = test system: HCT-116 colon
[23] = test system: MDA-MB-231 breast
[24] = test system: MOLT-4 leukemia
[25] = test system: IGROV1 ovarian
[26] = test system: MDA-MB-435
[27] = test system: SF-539 CNS
[28] = test system: HL-60(TB) leukemia

Molecule `N#CC(C#N)=C/C=C(\Sc1ccc(F)c(Cl)c1)c1ccc(Cl)cc1` has a GI50 [1] of 1620 nM, a TGI [1] of 6.57 µM and a GI50 [2] of 11.6 µM. It also gave a TGI [2] of 46.3 µM, a GI50 [3] of 396 nM and a TGI [3] of 12.6 µM. For the same molecule, the GI50 [4] was 4.78 µM, the TGI [4] was 43.5 µM and the GI50 [5] was 2050 nM. For the same molecule, the TGI [5] was 6.25 µM, the GI50 [6] was 795 nM and the TGI [6] was 3.34 µM. It also gave a GI50 [7] of 663 nM, a TGI [7] of 2120 nM and a GI50 [8] of 601 nM. The TGI [8] was 2010 nM, the GI50 [9] was 889 nM and the TGI [9] was 2860 nM. For the same molecule, the GI50 [10] was 918 nM, the TGI [10] was 7.43 µM and the GI50 [11] was 545 nM. It also gave a TGI [11] of 2240 nM, a GI50 [12] of 1120 nM and a TGI [12] of 6.77 µM. For the same molecule, the GI50 [13] was 720 nM, the TGI [13] was 2610 nM and the GI50 [14] was 3.29 µM. The TGI [14] was 12.7 µM, the GI50 [15] was 950 nM and the TGI [15] was 2490 nM. For the same molecule, the GI50 [16] was 3.09 µM, the TGI [16] was 8.84 µM and the GI50 [17] was 862 nM. The TGI [17] was 2420 nM, the GI50 [18] was 10.7 µM and the TGI [18] was > 53.2 µM. The GI50 [19] was 16 µM, the TGI [19] was 32.4 µM and the GI50 [20] was 3.26 µM. It also gave a TGI [20] of 20.4 µM, a GI50 [21] of 193 nM and a TGI [21] of 539 nM. It also gave a GI50 [22] of 300 nM, a TGI [22] of 799 nM and a GI50 [23] of 671 nM. The TGI [23] was 2020 nM, the GI50 [24] was 335 nM and the TGI [24] was 2740 nM. It also gave a GI50 [25] of 1090 nM, a TGI [25] of 4.29 µM and a GI50 [26] of 1250 nM. The TGI [26] was 4.29 µM, the GI50 [27] was 2190 nM and the TGI [27] was 6.58 µM. The GI50 [28] was 317 nM and the TGI [28] was 4.48 µM.
